The results in this text go back to US8906925B2, “Pyrido[4,3-B]indoles containing rigid moieties” (Medivation Technologies, Inc., priority 2008, dated 2014).

Assay [1] concerns the target T1, human recombinant serotonin (5-Hydroxytryptamine) 5-HT6 receptor (Homo sapiens, UniProt P50406).
T1 construct: expressed in transfected cells; host or cells: human HeLa cells
As to the kind of experiment: Serotonin 5-HT6 radioligand binding ([3H]LSD). As to conditions: read-out: Inhibition of ligand binding, Serotonin 5-HT6 (percent inhibition of specific binding); for inhibition at 1 µM: compound at 1 μM; for inhibition at 0.1 µM: compound at 0.1 μM. On the procedure: Compounds of the invention were incubated with 1.5 nM [3H]Lysergic acid diethylamide (LSD) for 120 min. at 37° C. […] Receptor proteins were filtered and washed, the filters were then counted to determine [3H]LSD specifically bound. Compounds were screened at 1 μM or lower, using 1% DMSO as vehicle. Biochemical assay results are presented as the percent inhibition of specific binding in Table 10.

Assay [2] deals with T2, human recombinant serotonin (5-Hydroxytryptamine) 5-HT2A receptor (Homo sapiens, UniProt P28223).
T2 construct: expressed in transfected cells; host or cells: Chinese hamster ovary (CHO-K1) cells
Briefly: Serotonin 5-HT2A radioligand binding ([3H]Ketanserin). As to conditions: for inhibition at 1 µM: read-out: Inhibition of ligand binding, Serotonin 5-HT2A (percent inhibition of specific binding), compound at 1 μM; for inhibition at 0.1 µM: read-out: Inhibition of ligand binding, Serotonin 5-HT2A (percent inhibition of specific binding), compound at 0.1 μM. On the procedure: Compounds of the invention were incubated with 0.5 nM [^3H]Ketanserin for 60 min. at 25° C. Non-specific binding was estimated in the presence of 1 μM Mianserin. Receptor proteins were filtered and washed, the filters were then counted to determine [^3H]Ketanserin specifically bound.

Assay [3] deals with T3, human recombinant histamine H2 receptor (Homo sapiens, UniProt P25021).
T3 construct: expressed in transfected cells; host or cells: Chinese hamster ovary (CHO) K1 cells
Briefly: Histamine H2 radioligand binding ([125I]Aminopotentidine). As to conditions: read-out: Histamine Binding (1 μM) H2, percent inhibition of specific binding, 1 μM. On the procedure: To evaluate in radioligand binding assays the activity of compounds of the invention, human recombinant histamine H2 receptor expressed in Chinese hamster ovary (CHO) K1 cells (Ruat, M., Proc. Natl. Acad. Sci. USA. 87(5):1658, 1990) in a 50 mM Phosphate buffer, pH 7.4 was used. Compounds of the invention were incubated with 0.1 nM [^125I]Aminopotentidine for 120 min. at 25° C. Non-specific binding was estimated in the presence of 3 μM Tiotidine. Receptor proteins were filtered and washed, the filters were then counted to determine [^125I]Aminopotentidine specifically bound.

Assay [4] concerns the target T4, human recombinant serotonin (5-Hydroxytryptamine) 5-HT2C receptor (Homo sapiens, UniProt P28335).
T4 construct: expressed in transfected cells; host or cells: Chinese hamster ovary (CHO-K1) cells
T4 sequence (P28335 33-458): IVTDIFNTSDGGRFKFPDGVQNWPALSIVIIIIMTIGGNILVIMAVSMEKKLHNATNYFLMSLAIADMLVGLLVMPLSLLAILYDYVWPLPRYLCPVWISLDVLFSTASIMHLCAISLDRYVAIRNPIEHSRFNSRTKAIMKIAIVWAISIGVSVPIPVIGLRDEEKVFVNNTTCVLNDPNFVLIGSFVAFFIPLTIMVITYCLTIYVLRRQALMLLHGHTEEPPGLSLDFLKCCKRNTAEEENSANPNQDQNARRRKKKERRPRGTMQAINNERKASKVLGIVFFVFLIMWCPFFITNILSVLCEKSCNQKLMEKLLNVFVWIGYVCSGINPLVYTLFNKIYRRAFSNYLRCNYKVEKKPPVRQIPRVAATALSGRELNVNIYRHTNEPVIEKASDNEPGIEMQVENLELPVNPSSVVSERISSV
Briefly: Serotonin 5-HT2C radioligand binding ([3H]Mesulergine). As to conditions: read-out: Inhibition of ligand binding, Serotonin 5-HT2C (percent inhibition of specific binding); for inhibition at 1 µM: compound at 1 μM; for inhibition at 0.1 µM: compound at 0.1 μM. Summed up: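 Compounds tested at 1 μM or lower (1% DMSO vehicle) for displacement of 1 nM [3H]Mesulergine over 60 min at 25° C. Specific binding determined by filtration counting, with 1 μM Mianserin defining non-specific binding; values are percent inhibition.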

For assay [5], the target named is human dopamine D2L receptor (Homo sapiens, UniProt P14416). As to the kind of experiment: Dopamine D2L radioligand binding ([3H]Spiperone). As to conditions: percent inhibition of specific binding; compound at 1 μM; read-out: Inhibition of ligand binding, Dopamine D2L. An excerpt:
Non-specific binding was estimated in the presence of […] Haloperidol. Receptor proteins were filtered and washed, the filters were then counted to determine [^3H]Spiperone specifically bound. […] Biochemical assay results are presented as the percent inhibition of specific binding in Table 9.

The next assay deals with histamine receptor H1 (Homo sapiens, UniProt P35367). Briefly: Histamine H1 radioligand binding ([3H]Pyrilamine). As to conditions: read-out: Histamine Binding (1 μM) H1, percent inhibition of specific binding, 1 μM. In a few lines:
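Values are percent inhibition of specific [3H]pyrilamine (1.2 nM) binding with compounds at ≤1 μM (1% DMSO vehicle); 180 min incubation at 25 °C, pH 7.4 Tris buffer, on CHO-expressed human H1 receptor; 1 μM pyrilamine defined nonspecific binding, bound ligand counted after filtration.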

In assay [6] the target is human recombinant serotonin (5-Hydroxytryptamine) 5-HT7 receptor (Homo sapiens, UniProt P34969). As to the kind of experiment: Serotonin 5-HT7 radioligand binding ([3H]LSD). As to conditions: read-out: Inhibition of ligand binding, Serotonin 5-HT7 (percent inhibition of specific binding); for inhibition at 1 µM: compound at 1 μM; for inhibition at 0.1 µM: compound at 0.1 μM. An excerpt: Receptor proteins were filtered and washed, the filters were then counted to determine [^3H]LSD specifically bound.

The term inhibition denotes the relative decrease from the control value, in per cent.

T1 sequence (P50406 whole entry): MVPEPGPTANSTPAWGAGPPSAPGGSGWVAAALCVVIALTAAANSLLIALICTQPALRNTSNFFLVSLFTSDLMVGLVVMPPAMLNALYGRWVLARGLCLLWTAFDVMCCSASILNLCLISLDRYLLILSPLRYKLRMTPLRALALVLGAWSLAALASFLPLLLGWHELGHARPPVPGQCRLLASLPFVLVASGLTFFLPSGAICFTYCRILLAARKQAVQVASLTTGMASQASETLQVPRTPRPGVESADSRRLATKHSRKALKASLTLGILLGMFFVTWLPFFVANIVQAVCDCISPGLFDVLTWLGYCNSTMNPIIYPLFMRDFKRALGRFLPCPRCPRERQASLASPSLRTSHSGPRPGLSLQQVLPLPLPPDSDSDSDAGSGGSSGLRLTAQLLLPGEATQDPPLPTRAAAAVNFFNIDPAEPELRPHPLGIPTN
T3 sequence (P25021 whole entry): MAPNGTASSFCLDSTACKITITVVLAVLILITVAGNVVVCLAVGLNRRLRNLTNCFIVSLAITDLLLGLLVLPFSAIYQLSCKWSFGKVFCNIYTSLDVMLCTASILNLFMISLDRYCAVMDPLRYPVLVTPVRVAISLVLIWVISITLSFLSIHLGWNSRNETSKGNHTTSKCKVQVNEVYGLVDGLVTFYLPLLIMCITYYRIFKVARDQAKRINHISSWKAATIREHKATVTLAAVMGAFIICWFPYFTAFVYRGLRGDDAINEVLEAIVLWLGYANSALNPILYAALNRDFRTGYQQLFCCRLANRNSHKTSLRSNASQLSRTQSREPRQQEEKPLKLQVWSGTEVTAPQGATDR
human recombinant serotonin (5-Hydroxytryptamine) 5-HT7 receptor, sequence (P34969 whole entry): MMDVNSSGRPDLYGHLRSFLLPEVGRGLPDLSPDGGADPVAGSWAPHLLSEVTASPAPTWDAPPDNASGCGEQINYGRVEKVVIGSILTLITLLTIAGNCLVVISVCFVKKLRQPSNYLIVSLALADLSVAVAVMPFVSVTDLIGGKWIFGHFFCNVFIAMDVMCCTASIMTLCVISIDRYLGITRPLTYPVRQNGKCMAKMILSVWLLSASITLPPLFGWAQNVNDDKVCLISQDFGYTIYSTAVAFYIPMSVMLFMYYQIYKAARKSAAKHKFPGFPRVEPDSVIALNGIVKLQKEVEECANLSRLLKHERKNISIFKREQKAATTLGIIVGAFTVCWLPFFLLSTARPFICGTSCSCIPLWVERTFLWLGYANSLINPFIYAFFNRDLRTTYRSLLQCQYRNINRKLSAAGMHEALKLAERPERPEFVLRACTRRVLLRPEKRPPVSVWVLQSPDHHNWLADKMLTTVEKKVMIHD
T2 sequence (P28223 whole entry): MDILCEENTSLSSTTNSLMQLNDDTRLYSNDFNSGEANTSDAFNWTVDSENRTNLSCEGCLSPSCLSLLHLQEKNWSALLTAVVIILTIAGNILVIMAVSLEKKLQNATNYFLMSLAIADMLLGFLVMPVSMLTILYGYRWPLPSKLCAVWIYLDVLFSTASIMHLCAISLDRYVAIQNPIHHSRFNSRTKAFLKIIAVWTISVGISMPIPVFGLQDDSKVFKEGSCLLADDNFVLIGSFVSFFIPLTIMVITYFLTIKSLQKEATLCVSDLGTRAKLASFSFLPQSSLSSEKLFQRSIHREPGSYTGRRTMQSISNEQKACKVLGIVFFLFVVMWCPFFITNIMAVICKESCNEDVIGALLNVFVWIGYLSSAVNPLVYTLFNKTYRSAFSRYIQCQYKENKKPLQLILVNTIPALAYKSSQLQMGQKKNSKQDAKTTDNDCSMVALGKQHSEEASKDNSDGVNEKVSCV
human dopamine D2L receptor, sequence (P14416 whole entry): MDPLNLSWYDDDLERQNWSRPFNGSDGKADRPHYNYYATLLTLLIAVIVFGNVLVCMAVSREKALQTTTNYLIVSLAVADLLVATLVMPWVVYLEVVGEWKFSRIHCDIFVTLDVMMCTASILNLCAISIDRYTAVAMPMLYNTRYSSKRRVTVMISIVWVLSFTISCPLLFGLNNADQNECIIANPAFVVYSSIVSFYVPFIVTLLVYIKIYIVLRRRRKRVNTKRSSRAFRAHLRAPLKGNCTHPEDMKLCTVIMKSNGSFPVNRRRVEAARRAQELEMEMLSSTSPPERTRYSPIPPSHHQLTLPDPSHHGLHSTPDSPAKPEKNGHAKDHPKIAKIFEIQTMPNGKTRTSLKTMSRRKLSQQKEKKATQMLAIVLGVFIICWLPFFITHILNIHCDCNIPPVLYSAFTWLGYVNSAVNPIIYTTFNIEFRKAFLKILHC
histamine receptor H1, sequence (P35367 whole entry): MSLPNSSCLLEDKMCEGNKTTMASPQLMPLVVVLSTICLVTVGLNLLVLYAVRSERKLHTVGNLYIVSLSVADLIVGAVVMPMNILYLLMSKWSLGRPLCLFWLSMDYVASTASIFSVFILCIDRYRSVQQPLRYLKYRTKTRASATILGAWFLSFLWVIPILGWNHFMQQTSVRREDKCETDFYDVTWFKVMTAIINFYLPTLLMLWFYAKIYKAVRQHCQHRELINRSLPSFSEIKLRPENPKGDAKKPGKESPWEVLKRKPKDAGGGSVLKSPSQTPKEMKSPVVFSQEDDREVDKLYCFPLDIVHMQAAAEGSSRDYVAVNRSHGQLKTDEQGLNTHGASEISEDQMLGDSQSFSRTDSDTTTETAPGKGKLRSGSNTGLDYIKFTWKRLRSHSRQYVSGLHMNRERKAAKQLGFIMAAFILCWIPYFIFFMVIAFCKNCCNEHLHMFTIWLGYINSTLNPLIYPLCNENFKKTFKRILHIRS

As to `CN1CCc2c(c3cc(F)ccc3n2CC(C)(O)c2ccncc2)C1` (centres unmarked) [Compound 181, 1-(8-fluoro-2-methyl-3,4-dihydro-1H-pyrido[4,3-b]indol-5(2H)-yl)-2-(pyridin-4-yl)propan-2-ol], the inhibition at 1 µM amounted to 32% in assay [1]; 77% in assay [2]; 25% in assay [3]; 80% in assay [4]; 8% in assay [5]; 0% at histamine receptor H1. The inhibition at 1 µM in assay [6] amounted to 30%.

Turning to `C/C(=C\n1c2c(c3cc(C)ccc31)CN(C)CC2)c1ccc(F)c(F)c1` [Compound 230, (E)-5-(2-(3,4-difluorophenyl)prop-1-enyl)-2,8-dimethyl-2,3,4,5-tetrahydro-1H-pyrido[4,3-b]indole], the inhibition at 1 µM in assay [1] was found to be 97%; in assay [2], 98%; in assay [3] it was 96%; in assay [4], 100%; in assay [5] it was 44%; at histamine receptor H1, 35%. The inhibition at 1 µM in assay [6] came to 93%.

`C/C(=C\n1c2c(c3cc(C)ccc31)CN(C)CC2)c1cc(F)c(F)cc1Cl` [Compound 221, (E)-5-(2-(2-chloro-4,5-difluorophenyl)prop-1-enyl)-2,8-dimethyl-2,3,4,5-tetrahydro-1H-pyrido[4,3-b]indole]: the inhibition at 1 µM amounted to 95% in assay [1]; 97% in assay [2]; 98% in assay [3]; 99% in assay [4]; 34% in assay [5]; 90% on histamine receptor H1. For the same compound, the inhibition at 1 µM in assay [6] was determined as 93%.

For the compound `CN1CCc2c(c3cc(Cl)ccc3n2CC(O)c2ccncc2)C1` (centres unmarked) [Compound 183, 2-(8-chloro-2-methyl-3,4-dihydro-1H-pyrido[4,3-b]indol-5(2H)-vyl)-1-(pyridin-4-yl)ethanol], the inhibition at 1 µM in assay [1] was determined as 72%; in assay [2], 82%; in assay [3], 47%; in assay [4], 78%; in assay [5], 15%; on histamine receptor H1, 91%. Besides, the inhibition at 1 µM in assay [6] amounted to 74%.

Take `COc1ccc(/C(C)=C/n2c3c(c4cc(C)ccc42)CN(C)CC3)cc1` [Compound 236, (E)-5-(2-(4-methoxyphenyl)prop-1-enyl)-2,8-dimethyl-2,3,4,5-tetrahydro-1H-pyrido[4,3-b]indole]: the inhibition at 1 µM in assay [1] turned out to be 98%; in assay [2] it was 99%; in assay [3] it was 99%; in assay [4] it was 102%; in assay [5], 76%; on histamine receptor H1, 20%. In assay [6], the inhibition at 1 µM amounted to 93%.

For the compound `C/C(=C/n1c2c(c3cc(C)ccc31)CN(C)CC2)c1ccccc1Cl` [Compound 242, (Z)-5-(2-(2-chlorophenyl)prop-1-enyl)-2,8-dimethyl-2,3,4,5-tetrahydro-1H-pyrido[4,3-b]indole], the inhibition at 1 µM in assay [1] amounted to 107%; in assay [2], 98%; in assay [3] it was 97%; in assay [4], 99%; in assay [5] it was 55%; at histamine receptor H1 it was 88%. For the same compound, the inhibition at 1 µM in assay [6] stood at 100%.

On to `C/C(=C\n1c2c(c3cc(Cl)ccc31)CN(C)CC2)c1cc(F)c(F)cc1Cl` [Compound 241, (E)-8-chloro-5-(2-(2-chloro-4,5-difluorophenyl)prop-1-enyl)-2-methyl-2,3,4,5-tetrahydro-1H-pyrido[4,3-b]indole], for which the inhibition at 1 µM in assay [1] came out at 101%; in assay [2], 93%; in assay [3] it was 98%; in assay [4] it was 100%; in assay [5], 47%; at histamine receptor H1 it was 89%. Further, the inhibition at 1 µM in assay [6] was 96%.

For the compound `C/C(=C\n1c2c(c3cc(C)ccc31)CN(C)CC2)c1ccc(O)cc1` [Compound 235, (E)-4-(1-(2,8-dimethyl-3,4-dihydro-1H-pyrido[4,3-b]indol-5(2H)-yl)prop-1-en-2-yl)phenol], the inhibition at 1 µM in assay [1] came to 99%; in assay [2], 98%; in assay [3] it was 96%; in assay [4], 101%; in assay [5] it was 80%; at histamine receptor H1 it was 73%. Also, in assay [6], the inhibition at 1 µM was 96%.

Take `C/C(=C\n1c2c(c3cc(Cl)ccc31)CN(C)C(C)C2)c1ccc(F)cc1` (centres unmarked) [Compound 262, (E)-8-chloro-5-(2-(4-fluorophenyl)prop-1-enyl)-2,3-dimethyl-2,3,4,5-tetrahydro-1H-pyrido[4,3-b]indole]: the inhibition at 0.1 µM in assay [1] worked out at 99%; in assay [2] it was 99%; in assay [4], 100%; in assay [6], 94%. Also, the inhibition at 1 µM in assay [5] worked out at 97%; at histamine receptor H1, 66%.

In the case of `Cc1ccc2c(c1)c1c(n2/C=C(\c2ccncc2)C(C)C)CCN(C)C1` [Compound 264, (Z)-2,8-dimethyl-5-(3-methyl-2-(pyridin-4-yl)but-1-enyl)-2,3,4,5-tetrahydro-1H-pyrido[4,3-b]indole], the inhibition at 0.1 µM turned out to be 89% in assay [1], 99% in assay [2], 94% in assay [4] and 51% in assay [6]. Further, the inhibition at 1 µM in assay [5] stood at 49%; at histamine receptor H1 it was 24%.

Consider `C/C(=C\n1c2c(c3cc(Cl)ccc31)CN(C)C(C)C2)c1ccc(C)nc1` (centres unmarked) [Compound 273, (E)-8-chloro-2,3-dimethyl-5-(2-(6-methylpyridin-3-yl)prop-1-enyl)-2,3,4,5-tetrahydro-1H-pyrido[4,3-b]indole], for which the inhibition at 0.1 µM in assay [1] came out at 46%; in assay [2], 94%; in assay [4] it was 100%; in assay [6] it was 85%. For the same compound, the inhibition at 1 µM in assay [5] was 12%; on histamine receptor H1 it was 41%.

Consider `C/C(=C\n1c2c(c3ccccc31)CN(C)CC2)c1ccc(C)nc1` [Compound 254, (E)-2-methyl-5-(2-(6-methylpyridin-3-yl)prop-1-enyl)-2,3,4,5-tetrahydro-1H-pyrido[4,3-b]indole], for which the inhibition at 0.1 µM in assay [1] was determined as 15%; in assay [2] it was 65%; in assay [4], 52%; in assay [6], 63%. Further, the inhibition at 1 µM in assay [5] is 11%; at histamine receptor H1, 7%.
